# Where two headings read alike, the source gives them in different places. Marks after values point to notes of the source that are not given here.
# Experiments:
# [1] = tested on: Staphylococcus aureus (Smith Strain ATCC 13709); assay: Staphylococcus aureus mouse protection assay; format: in vivo, mice; settings: Staph Conc. 10^6, 10% Mucin, the 13th table
# Description: Two of the novel aminoglycoside compounds of the invention were examined for their anitbacterial activity against staphylococcus aureus. Mice were fed with autoclaved commercial food pellets and sterile water ad libitum. Animals were inoculated intraperitoneally with 0.5 mL/mouse of the indicated concentration of S. aureus (ATCC 13709) containing 10% mucin. There were 10 mice in each treatment group and compounds were administered subcutaneously one and 3 hour after infection. Compounds 15a (R4═R5═CH3) and 15j (R4═H, R5═(CH2)2C6H5)) were used at 75 mg/kg, 37.5 mg/kg, 18.8 mg/kg, 9.4 mg/kg, 4.7 mg/kg, 2.3 mg/kg, 1.17 mg/kg and 0.5 mg/kg. Amakacin, paromomycin and neomycin were used as the positive controls at concentrations of 2 mg/kg, 1 mg/kg and 0.5 mg/kg.
# Test compound was administered as an aqueous buffer solution (phosphate buffered saline (PBS), pH=7.4).
# [2] = target: 16S ribosomal subunit RNA target; assay: Mass spectrometry based binding assay (FTICR), 16S
# Description: In a typical experiment, 10 μL of an aqueous solution containing 100 mM ammonium acetate buffer, […], and 33% isopropyl alcohol (to aid ion desolvation) was prepared with different concentrations of each ligand or ligand mixture Samples were introduced into the electrospray ionization source (negative ionization mode) at 1 μL/min and ions were stored for 1 sec in an RF-only hexapole following desolvation. The abundances were integrated from the respective ions for free RNA and the ligand-RNA complex. The primary (1:1 RNA:ligand) and secondary (1:2 complex, if observed). […] The peak ratios were measured at each concentration, then a plot of complex/free RNA versus concentration of ligand added was fitted to a second (or higher) order binding polynomial to determine the KD.
# S. Aureus = assay: MIC, S. Aureus; format: cell-based
# Description: (§1) The MIC assays are carried out in 150 μL volume in duplicate in 96-well clear flat-bottom plates. The bacterial suspension from an overnight culture growth in appropriate medium is added to a solution of test compound in 4% DMSO in water. Final bacterial inoculum is approximately 10^5-10^6 CFU/well. […] Both ampicillin and tetracycline are used as antibiotic-positive controls in each screening assay for S. pyogenes, E. coli imp-, E. coli, S. aureus, E. faecalis, K. pneumoniae and P. vulgaris. Ciprofloxacin is used as an antibiotic positive control in each screening assay for P. aeruginosa.
# [3] = target: 18S ribosomal subunit RNA target; assay: Mass spectrometry based binding assay (FTICR), 18S
# Description: In a typical experiment, 10 μL of an aqueous solution containing 100 mM ammonium acetate buffer, 2.5 or 5 μM of each RNA, and 33% isopropyl alcohol (to aid ion desolvation) was prepared with different concentrations of each ligand or ligand mixture Samples were introduced into the electrospray ionization source (negative ionization mode) at 1 μL/min and ions were stored for 1 sec in an RF-only hexapole following desolvation. The abundances were integrated from the respective ions for free RNA and the ligand-RNA complex. The primary (1:1 RNA:ligand) and secondary (1:2 complex, if observed). […] The peak ratios were measured at each concentration, then a plot of complex/free RNA versus concentration of ligand added was fitted to a second (or higher) order binding polynomial to determine the KD.
# [4] = tested on: E. coli S30 bacterial extract (pBestLuc firefly luciferase reporter); assay: Coupled bacterial transcription/translation assay; format: biochemical; settings: read-out: Trans/Trans IC50
# Description: The DNA template, pBestLuc™ (Promega), is a plasmid containing a reporter gene for firefly luciferase fused to a strong tac promoter and ribosome binding site. Messenger RNA from 1 μg pBestLuc is transcribed and translated in E. coli S30 bacterial extract in the presence or absence of test compound. Compounds are tested in a black 96 well microtiter plate with an assay volume of 35 μL. […] The transcription/translation reaction is incubated for 35 minutes at 37° C. followed by detection of functional luciferase with the addition of 30 μL LucLite™ (Packard). Light output is quantitated on a Packard TopCount.
# E. Coli = assay: MIC, E. Coli; format: cell-based
# Description: as §1
# [5] = FTICR mass spectrometry, run at 100 nM RNA, Example 105
# [6] = marked with an asterisk: run at 500 nM RNA, Example 105
compound,measurement,setting,value
"NCC[C@H](O)C(=O)N[C@@H]1C[C@H](N)[C@@H](O[C@H]2O[C@H](CN)[C@@H](O)[C@H](O)[C@H]2O)[C@H](O)[C@H]1O[C@H]1O[C@H](CO)[C@@H](O)[C@H](N)[C@H]1O [Amikacin, reference compound]",# Dead mice/Total mice in group,[1]; 0.5 mg/kg subcutaneously,8/10
same,# Dead mice/Total mice in group,[1]; 1 mg/kg subcutaneously,10/10
same,# Dead mice/Total mice in group,[1]; 2 mg/kg subcutaneously,8/10
NCC1OC(OC2C(CO)OC(OC3C(O)C(N)CC(N)C3OC3OC(CO)C(O)C(O)C3N)C2OCCNc2cccnc2)C(N)C(O)C1O (centres unmarked) [Compound 9a],Kd,[2]; [5],600 nM
same,MIC S. Aureus,S. Aureus; Example 105,0.6-1^ uM
same,Kd,"[3]; FTICR mass spectrometry, Example 105",3500 nM
same,IC50,[4]; Example 105,100 nM
same,MIC E. Coli.,E. Coli; Example 105,3-6^b uM
NCC1OC(OC2C(CO)OC(OC3C(O)C(N)CC(N)C3OC3OC(CO)C(O)C(O)C3N)C2OCCNCCc2ccc(-c3ccccc3)cc2)C(N)C(O)C1O (centres unmarked) [Compound 9aa],Kd,[2]; Example 106,900 nM
same,MIC S. Aureus,S. Aureus; Example 106,5 to 10 µM
same,Kd,[3]; Example 106,3500 nM
same,IC50,[4]; Example 106,1500 nM
same,MIC E. Coli.,E. Coli; Example 106,20 to 40 µM
NCC1OC(OC2C(CO)OC(OC3C(O)C(N)CC(N)C3OC3OC(CO)C(O)C(O)C3N)C2OCCNCCC2CC3CCC2C3)C(N)C(O)C1O (centres unmarked) [Compound 9ab],MIC S. Aureus,S. Aureus; Example 107,5 to 10 µM
same,MIC E. Coli.,E. Coli; Example 107,>10 µM
NCC1OC(OC2C(CO)OC(OC3C(O)C(N)CC(N)C3OC3OC(CO)C(O)C(O)C3N)C2OCCNC2CCCc3ccccc32)C(N)C(O)C1O (centres unmarked) [Compound 9ac],MIC S. Aureus,S. Aureus; Example 107,1.3 to 2.5 µM
same,MIC E. Coli.,E. Coli; Example 107,>10 µM
NCC1OC(OC2C(CO)OC(OC3C(O)C(N)CC(N)C3OC3OC(CO)C(O)C(O)C3N)C2OCCNCCc2cc(C(F)(F)F)cc(C(F)(F)F)c2)C(N)C(O)C1O (centres unmarked) [Compound 9af],MIC S. Aureus,S. Aureus; Example 107,2.5-5^ uM
same,MIC E. Coli.,E. Coli; Example 107,>10 µM
NCC1OC(OC2C(CO)OC(OC3C(O)C(N)CC(N)C3OC3OC(CO)C(O)C(O)C3N)C2OCCNCCc2ccc(C(F)(F)F)cc2)C(N)C(O)C1O (centres unmarked) [Compound 9ah],MIC S. Aureus,S. Aureus; Example 107,0.6 to 1.2 µM
same,MIC E. Coli.,E. Coli; Example 107,5 to 10 µM
NCCCNCCOC1C(OC2C(O)C(N)CC(N)C2OC2OC(CO)C(O)C(O)C2N)OC(CO)C1OC1OC(CN)C(O)C(O)C1N (centres unmarked) [Compound 9c],Kd,[2]; [6],400 nM
same,MIC S. Aureus,S. Aureus; Example 105,3 to 6 µM
same,IC50,[4]; Example 105,300 nM
same,MIC E. Coli.,E. Coli; Example 105,25 to 50 µM
NCCNCCOC1C(OC2C(O)C(N)CC(N)C2OC2OC(CO)C(O)C(O)C2N)OC(CO)C1OC1OC(CN)C(O)C(O)C1N (centres unmarked) [Compound 9d],Kd,[2]; [5],700 nM
same,MIC S. Aureus,S. Aureus; Example 105,2 to 3 µM
same,IC50,[4]; Example 105,300 nM
same,MIC E. Coli.,E. Coli; Example 105,6 to 12 µM
NCCOC1C(OC2C(O)C(N)CC(N)C2OC2OC(CO)C(O)C(O)C2N)OC(CO)C1OC1OC(CN)C(O)C(O)C1N (centres unmarked) [Compound 9f],Kd,[2]; [5],300 nM
same,MIC S. Aureus,S. Aureus; Example 105,2 to 3 µM
same,IC50,[4]; Example 105,400 nM
same,MIC E. Coli.,E. Coli; Example 105,12 to 25 µM
CN(C)CCOC1C(OC2C(O)C(N)CC(N)C2OC2OC(CO)C(O)C(O)C2N)OC(CO)C1OC1OC(CN)C(O)C(O)C1N (centres unmarked) [Compound 9g],Kd,[2]; [6],900 nM
same,MIC S. Aureus,S. Aureus; Example 105,6 to 12 µM
same,IC50,[4]; Example 105,200 nM
same,MIC E. Coli.,E. Coli; Example 105,12 to 52 µM
NCCN(CCN)CCOC1C(OC2C(O)C(N)CC(N)C2OC2OC(CO)C(O)C(O)C2N)OC(CO)C1OC1OC(CN)C(O)C(O)C1N (centres unmarked) [Compound 9h],Kd,[2]; [5],9200 nM
same,MIC S. Aureus,S. Aureus; Example 105,25 to 50 µM
same,IC50,[4]; Example 105,1000 nM
same,MIC E. Coli.,E. Coli; Example 105,>50 µM
NCC1OC(OC2C(CO)OC(OC3C(O)C(N)CC(N)C3OC3OC(CO)C(O)C(O)C3N)C2OCCNc2ccccc2)C(N)C(O)C1O (centres unmarked) [Compound 9l],MIC S. Aureus,S. Aureus; Example 105,6 to 12 µM
same,IC50,[4]; Example 105,100 nM
same,MIC E. Coli.,E. Coli; Example 105,50 to 100 µM
COc1cc(CCNCCOC2C(OC3C(O)C(N)CC(N)C3OC3OC(CO)C(O)C(O)C3N)OC(CO)C2OC2OC(CN)C(O)C(O)C2N)cc(OC)c1 (centres unmarked) [Compound 9y],MIC S. Aureus,S. Aureus; Example 106,5 to 10 µM
same,IC50,[4]; Example 106,200 nM
same,MIC E. Coli.,E. Coli; Example 106,10 to 20 µM

# Reference: patent publication US8569264B2, “Antibacterial 4,5-substituted aminoglycoside analogs having multiple substituents” (ISIS Pharmaceuticals, Inc., priority 2005, dated 2013)
